Assay [1] relates to CD8+ T cells. The assay is described as follows: Exogenous autologous healthy donor restimulation assay, TNFα and IFNγ production by CD8+ T cells. It is filed as cell-based, human. Details: Frequency (TNFα+ IFNγ+ CD8 T cells): unit not given here. The settings on record: for Fold change (CD8+) vs. DMSO: maximum CD8+ T-cell response (TNFα and IFNγ); for Fold change (CD8+) vs. DMSO / Frequency (TNFα+ IFNγ+ CD8 T cells): donor independent, peptide pool 10 μg/mL, healthy donors; for Frequency (TNFα+ IFNγ+ CD8 T cells): maximum CD8+ T-cell response; for Immunogenic (yes/no): positive if CD8+ and/or CD4+ double positive TNFα/IFNγ frequency >=3-fold over DMSO and at least 0.01%. The protocol:
(§1) Immunogenicity responses were measured by estimating TNFα IFNγ double positive cells in the CD4+ and/or CD8+ T-cell populations. A response is considered positive if TNFα IFNγ double positive fraction was greater than or equal to three-fold over unstimulated cells (DMSO negative control) with a minimum frequency >=0.01%. […]
(§2) Overlapping 15-mer peptides were designed to span each indicated neoantigen. Their ability to activate T cells was assessed using known methods, such as the assay defnied as exogenous autologous normal donor restimulation assay. The peptides were used as pools using TNFα and IFNγ production by CD8^+ and CD4^+ T cells as a readout. Maximum frequency of CD8^+TNFα^+IFNγ^+ and CD4^+TNFα^+IFNγ^+ T cells and maximum fold change over background for each pool of peptides were analyzed, which were calculated as the highest frequency of CD8^+ TNFα^+IFNγ^+ and CD4^+ TNFα^+IFNγ^+ T cells and resulting fold change across the normal donors evaluated for the peptide.
(§3) CD1c+Dendritic Cells (CD1c+DC) isolated from human healthy PBMCs were thawed using media (IMDM (Gibco) supplemented with glutamine, HEPES, 5% human serum (Sigma), and 1× Pen-Strep). DC cells were resuspended in media supplemented with IL-4 (Peprotech, 20 ng/mL) and GM-CSF (Gibco, 20 ng/mL), plated in 6 well microplates, and rested overnight at 37° C. and 5% CO2 incubator. The following day, DC cells were counted and plated in a 96 well round bottom microplate at a concentration of 30,000 viable cells per well. Lyophilized neoantigen peptide pools (15-mer peptides with 8-mer overlapping peptide sequences) were solubilized in 100% DMSO with a stock concentration of 20 mg/mL Neoantigen peptides pools were added to DCs for a final concentration of 10 μg/mL and rested for 2 hours at 37° C. and 5% CO2 incubator. CEF Peptide Pool “Plus” (Cellular Technologies, Ltd.) was utilized as a positive control (each viral peptide at a final concentration of 4 ug/ml) and DMSO at the same final concentration (0.05%) as the experimental peptides was utilized as a negative control. After 2 hours, DC cells were irradiated with 50 gray of ionizing radiation. Autologous CD3+ Pan-T cells isolated from human normal PBMCs were thawed using media. Following irradiation, autologous Pan-T cells were added to the irradiated DCs at 300,000 viable cells per well. Human IL-15 (Peprotech) was added to all wells at final concentration of 10 ng/ml. Plates were incubated at 37° C. and 5% CO2 incubator for a total of 12 days. Media was refreshed every 2-3 days with IL-15 (R&D System, 10 ng/mL final concentration) and IL-2 (R&D systems, 10 IU/mL final concentration).
(§4) On Day 11, cells were re-stimulated with identical experimental peptide pools or controls, at same concentration as peptide stimulation on Day 1. Protein Inhibitor Cocktail (eBioscience) was added to every well and plate was incubated overnight for 14-16 hours at 37° C. and 5% CO2 incubator. On Day 12, cells were stained for surface and intracellular flow cytometry analysis. The cells were washed with PBS and stained with Live/Dead Fixable Aqua Dead Cell stain (Thermo-Fisher). Following the live/dead stain, cells were blocked using Biotin-Free Fc Receptor Blocker (Accurate Chemical & Scientific Corp). Extracellular cellular flow panel (1 μL/antibody per well in 50 μL) consisted of CD3 PerCP-Cy5.5 (Biolegend), CD4 BV421 (Biolegend), and CD8 APC-Cy7 (Biolegend). After extracellular staining, cells were fixed and permeabilized using Foxp3/Transcription Factor Staining Buffer Set (eBioscience) and stained for intracellular proteins (1:50 dilution) using TNFα FITC (R&D Systems) and IFNγ BV785 (Biolegend). Cells were washed and resuspended in stain buffer, analyzed, and recorded in a BD Celesta flow cytometer.
(§5) Flow cytometry analysis was conducted on FlowJo v10.6 software. Cells were gated on live, singlet, CD3+, CD4+ and CD8+ T cells. The CD8+ and CD4+ T cells were analyzed for TNFα and IFNγ expression. […]

In assay [2] the test system is CD4+ T cells. The assay is described as follows: Exogenous autologous healthy donor restimulation assay, TNFα and IFNγ production by CD4+ T cells. As to conditions: donor independent, peptide pool 10 μg/mL, healthy donors; for Fold change (CD4+) vs. DMSO: maximum CD4+ T-cell response (TNFα and IFNγ); for Frequency (TNFα+ IFNγ+ CD4 T cells): maximum CD4+ T-cell response. Format: cell-based, human. Details: Frequency (TNFα+ IFNγ+ CD4 T cells): unit not given here. On the procedure: as §1, §2, §3, §4, §5

We go through 20 sequences from US20210261636A1, “NEOANTIGENS EXPRESSED IN MULTIPLE MYELOMA AND THEIR USES” (Janssen Biotech, Inc., priority 2020, published 2021).

With “AAGVVTEIEAAVKA [FUS17, gene fusion HBS1L-> ALDH8A1]”, in assay [1], the “Fold change (CD8+) vs. DMSO” value was found to be 5.31, the “Frequency (TNFα+ IFNγ+ CD8 T cells)” value was 0.13 and the “Immunogenic (yes/no)” value is given as “Yes”. Also, in assay [2], the “Fold change (CD4+) vs. DMSO” value was determined as 2.11 and the “Frequency (TNFα+ IFNγ+ CD4 T cells)” value came out at 0.012.
On the same counts, the results for “ACGACGAGFFIKQKCIEQRESRSLS [FUS22, gene fusion IGLL5-> COMMD3-BMI1, BMI1]” are 89.07, 0.11, “Yes”, 0.86 and 0.006.
As for “AFIYHAFVGSTKTAWRTTL [FUS13, gene fusion KCNQ5-> KCNQ5-IT1]”, in assay [1], the “Fold change (CD8+) vs. DMSO” value stood at 3.96, the “Frequency (TNFα+ IFNγ+ CD8 T cells)” value was 0.033 and the “Immunogenic (yes/no)” value is “Yes”. Besides, in assay [2], the “Fold change (CD4+) vs. DMSO” value came out at 8.79 and the “Frequency (TNFα+ IFNγ+ CD4 T cells)” value is given as 0.057.
The matching figures for “AGDVLFIPGISLKVHKVQHSKVINICN [AS55, alternative splicing, TYW5]”: 96.05, 0.17, “Yes”, 27.71 and 0.042.
On the same counts, the results for “AKFWSDISINRAPSFG [AS94, alternative splicing, TTLL7]” are 97.14, 2.72, “Yes”, 62.53 and 0.63.
In the case of “ARHLLTLGTCGSTWP [FUS26, gene fusion P2RY6-> ARHGEF17]”, in assay [1], the “Fold change (CD8+) vs. DMSO” value worked out at 7.07, the “Frequency (TNFα+ IFNγ+ CD8 T cells)” value was 0.1 and the “Immunogenic (yes/no)” value is given as “Yes”. Also, in assay [2], the “Fold change (CD4+) vs. DMSO” value turned out to be 2.46 and the “Frequency (TNFα+ IFNγ+ CD4 T cells)” value stood at 0.026.
On the same counts, the results for “ARWFTREQGSEN [FUS12, gene fusion NUDT12-> LINC02115]” are 24.68, 0.58, “Yes”, 2.77 and 0.027.
The matching figures for “CEIMPLQSYILL [AS37, alternative splicing, FAM13A]”: 17.37, 0.32, “Yes”, 576.132 and 0.21.
Turning to “CKVCQNCKNPKMARAS [AS23, alternative splicing, KMT2C]”, in assay [1], the “Fold change (CD8+) vs. DMSO” value was 3.05, the “Frequency (TNFα+ IFNγ+ CD8 T cells)” value is listed as 0.065 and the “Immunogenic (yes/no)” value is on record as “Yes”. Further, in assay [2], the “Fold change (CD4+) vs. DMSO” value is on record as 18 and the “Frequency (TNFα+ IFNγ+ CD4 T cells)” value came out at 0.063.
The matching figures for “CRERGLQEAEGDVAAL [FUS40, gene fusion KLF2-> TPM4]”: 18.3, 0.43, “Yes”, 1.26 and 0.024.
Take “DLFDEFDNSRLVSRSWFFFYLRNKWNLALGF [AS24, alternative splicing, ST3GAL6]”: in assay [1], the “Fold change (CD8+) vs. DMSO” value is 1300, the “Frequency (TNFα+ IFNγ+ CD8 T cells)” value was found to be 0.13 and the “Immunogenic (yes/no)” value is on record as “Yes”. In assay [2], the “Fold change (CD4+) vs. DMSO” value worked out at 613.88 and the “Frequency (TNFα+ IFNγ+ CD4 T cells)” value came to 3.14.
The matching figures for “DLNQDGYNGNLNQSVEVIYVSSPLHKGDHACFKVFSMVCVGAVIITDF [AS64, alternative splicing, ITGA8]”: 6.83, 0.8, “Yes”, 376.11 and 0.57.
As for “DMEVFLKEASTNQHNTLIHLTLTFST [AS73, alternative splicing, SMC5]”, in assay [1], the “Fold change (CD8+) vs. DMSO” value is reported as 3, the “Frequency (TNFα+ IFNγ+ CD8 T cells)” value stood at 0.02 and the “Immunogenic (yes/no)” value is reported as “Yes”. Further, in assay [2], the “Fold change (CD4+) vs. DMSO” value is on record as 72.58 and the “Frequency (TNFα+ IFNγ+ CD4 T cells)” value stood at 0.11.
On to “DPTTKRSRLTPKLHFLVERNPRWSQEQRKYL [AS92, alternative splicing, MSI2]”, for which, in assay [1], the “Fold change (CD8+) vs. DMSO” value is listed as 41.24, the “Frequency (TNFα+ IFNγ+ CD8 T cells)” value amounted to 0.073 and the “Immunogenic (yes/no)” value is recorded as “Yes”. Also, in assay [2], the “Fold change (CD4+) vs. DMSO” value was 31.67 and the “Frequency (TNFα+ IFNγ+ CD4 T cells)” value turned out to be 0.048.
The matching figures for “DVAVICSGRRSARDP [FUS4, gene fusion CD5L-> FCRL1]”: 3.1, 0.04, “No”, 7.13 and 0.029.
The matching figures for “DVAVICSGVPVADVS [FUS5, gene fusion CD5L-> FCRL1]”: 4.59, 0.079, “Yes”, 6.97 and 0.021.
The matching figures for “EGTPFEDGKSYSLCFL [AS78, alternative splicing, UBE2B]”: 29.32, 0.52, “Yes”, 3.14 and 0.024.
With “ERSHSKKKDGLVRNDGPGFPPMFSTSENTNLD [AS54, alternative splicing, SETBP1]”, in assay [1], the “Fold change (CD8+) vs. DMSO” value was determined as 0.73, the “Frequency (TNFα+ IFNγ+ CD8 T cells)” value is 0.008 and the “Immunogenic (yes/no)” value is “Yes”. In assay [2], the “Fold change (CD4+) vs. DMSO” value was determined as 90.535 and the “Frequency (TNFα+ IFNγ+ CD4 T cells)” value amounted to 0.033.
For “FALMASLGIPQTMAA [FUS56, gene fusion ZNF772-> VN1R1]”, in assay [1], the “Fold change (CD8+) vs. DMSO” value turned out to be 2.73, the “Frequency (TNFα+ IFNγ+ CD8 T cells)” value is recorded as 0.007 and the “Immunogenic (yes/no)” value is reported as “Yes”. In addition, in assay [2], the “Fold change (CD4+) vs. DMSO” value is recorded as 115.03 and the “Frequency (TNFα+ IFNγ+ CD4 T cells)” value is given as 0.75.
On the same counts, the results for “FGTSHMMVRHF [AS33, alternative splicing, CFAP54]” are 47.27, 0.49, “Yes”, 2.78 and 0.009.
